This data set can be described thus: Dissolution kinetics in a model beverage base (Distek 2100B USP 2 dissolution system, UV/VIS probe at 324 nm). The following applies: 200 rpm, 20 ppm nominal. It is filed as physicochemical. As to the method: The dissolution kinetics of the powder prepared in example 1 was compared to that of Compound 1 alone. Evaluation was performed under standard conditions using a Distek 2100B USP 2 dissolution system and a model beverage base.
The model beverage was prepared by stirring together 35 g sucrose, 1.5 g citric acid and 965.3 g deionised water until the sucrose was fully dissolved. Comparative sample 1 was prepared by adding 20 mg of Compound 1 (unencapsulated) to 1 litre of the beverage base to provide 20 ppm of compound 1. Sample 2 was prepared by adding 200 mg of the powder prepared in example 1 to 1 litre of the beverage to provide, once dissolved, a solution containing 20 ppm of compound 1. The samples were each stirred at 200 rpm and the concentration of compound 1 in solution was monitored as a function of time using a UV/VIS spectrometer probe (measuring absorbance at 324 nm). The results are given in the following table (where the values represent the amount (ppm) of Compound 1 in solution: […]

Structures are written as SMILES.

For `CCCNC(=O)C(C)(C)COc1cccc2c1C(N)=NS(=O)(=O)N2` [Sample 1], the “time at which 50% dissolution of Compound 1 was achieved” value is on record as “approximately 3600 seconds”. In addition, the “Concentration in Solution (amount of Compound 1 in solution)” value (“Concentration in Solution” below) (time 0 seconds) came out at 0 ppm. The “Concentration in Solution” value (time 10 seconds) was determined as 0.1 ppm. Also, under “time 30 seconds”, the “Concentration in Solution” value was 0.2 ppm. For the setting “time 60 seconds”, the “Concentration in Solution” value worked out at 0.3 ppm. The “Concentration in Solution” value (time 300 seconds) was found to be 0.6 ppm. The “Concentration in Solution” value (time 600 seconds) amounted to 1.4 ppm. Further, the “Concentration in Solution” value (time 3600 seconds) worked out at 10.2 ppm.

For the origin of these results see US20130084379A1, “ACTIVE INGREDIENT DELIVERY SYSTEM” (FIRMENICH SA, priority 2010, published 2013).
